Source: patent US9796741B2 (Achillion Pharmaceuticals, Inc., priority 2014, dated 2017)

Biological target: Human factor D (Homo sapiens (Human), UniProt P00746)
Test: Human Factor D Assay
Type: biochemical
Conditions: human factor D 80 nM, substrate Z-L-Lys-SBzl, DTNB
Protocol: Human factor D (purified from human serum, Complement Technology, Inc.) at 80 nM final concentration is incubated with test compound at various concentrations for 5 minutes at room temperature in 50 mM Tris, 1M NaCl, pH 7.5. A synthetic substrate Z-L-Lys-SBzl and DTNB (Ellman's reagent) are added to final concentrations of 100 μM each. The increase in color is recorded at OD405 nm in a microplate in kinetic mode over 30 minutes with 30 second time points in a spectrofluorimeter. IC50 values are calculated by non-linear regression from the percentage of inhibition of complement factor D activity as a function of test compound concentration.

Sequence of Human factor D (P00746 26-253): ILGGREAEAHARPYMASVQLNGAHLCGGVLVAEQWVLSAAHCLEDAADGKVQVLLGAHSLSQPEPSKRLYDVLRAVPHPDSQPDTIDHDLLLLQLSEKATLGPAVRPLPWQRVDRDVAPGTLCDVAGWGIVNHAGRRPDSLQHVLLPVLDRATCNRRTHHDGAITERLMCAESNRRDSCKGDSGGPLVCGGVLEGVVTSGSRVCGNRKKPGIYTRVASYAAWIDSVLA

SMILES | IC50 [nM]
NC(=O)c1nn(CC(=O)N2C[C@H](F)C[C@H]2C(=O)Nc2cccc(-c3ccccc3Cl)c2F)c2ccc(-c3cn[nH]c3)cc12 [Compound 1] | < 1000
NC(=O)c1nn(CC(=O)N2C[C@H](F)C[C@H]2C(=O)Nc2cccc(-c3ccccc3Cl)c2F)c2ccc(-c3cncnc3)cc12 [Compound 2] | < 1000
NC(=O)c1nn(CC(=O)N2C[C@H](F)C[C@H]2C(=O)Nc2cccc(Br)n2)c2ccc(-c3ccc(N4CCOCC4)cc3)cc12 [Compound 3, 1-(2-((2S,4R)-2-((6-Bromopyridin-2-yl)carbamoyl)-4-fluoropyrrolidin-1-yl)-2-oxoethyl)-5-(4-morphlinophenyl)-1H-indazole-3-carboxamide] | < 1000
NC(=O)c1nn(CC(=O)N2[C@@H]3C[C@@H]3C[C@H]2C(=O)Nc2cccc(Br)n2)c2ccc(-c3cncnc3)cc12 [Compound 4] | < 1000
NC(=O)c1nn(CC(=O)N2C[C@H](F)C[C@H]2C(=O)Nc2cccc(Br)n2)c2ccc(-c3cncnc3)cc12 [Compound 5, 1-(2-((2S,4R)-2-(6-bromopyridin-2-ylcarbamoyl)-4-fluoropyrrolidin-1-yl)-2-oxoethyl)-5-(pyrimidin-5-yl)-1H-indazole-3-carboxamide] | < 1000
NC(=O)c1nn(CC(=O)N2[C@@H]3C[C@@H]3C[C@H]2C(=O)Nc2cccc(-c3ccccc3Cl)c2F)c2ccc(-c3cncnc3)cc12 [Compound 6, 1-(2-((1R,3S,5R)-3-(2′-chloro-2-fluorobiphenyl-3-ylcarbamoyl)-2-azabicyclo[3.1.0]hexan-2-yl)-2-oxoethyl)-5-(pyrimidin-5-yl)-1H-indazole-3-carboxamide] | < 1000
NC(=O)c1nn(CC(=O)N2[C@@H]3C[C@@H]3C[C@H]2C(=O)Nc2cccc(-c3ccccc3Cl)c2F)c2ccc(-c3ncccn3)cc12 [Compound 7, 1-(2-((1R,3S,5R)-3-(2′-chloro-2-fluorobiphenyl-3-ylcarbamoyl)-2-azabicyclo[3.1.0]hexan-2-yl)-2-oxoethyl)-5-(pyrimidin-2-yl)-1H-indazole-3-carboxamide] | < 1000
NC(=O)c1nn(CC(=O)N2[C@@H]3C[C@@H]3C[C@H]2C(=O)Nc2cccc(OC(F)(F)F)c2F)c2ccc(-c3cncnc3)cc12 [Compound 8, 1-(2-((1R,3S,5R)-3-(2-fluoro-3-(trifluoromethoxy)phenylcarbamoyl)-2-azabicyclo[3.1.0]hexan-2-yl)-2-oxoethyl)-5-(pyrimidin-5-yl)-1H-indazole-3-carboxamide] | < 1000
NC(=O)c1nn(CC(=O)N2C[C@H](F)C[C@H]2C(=O)Nc2cccc(OC(F)(F)F)c2F)c2ccc(-c3cncnc3)cc12 [Compound 9, 1-(2-((2S,4R)-4-fluoro-2-(2-fluoro-3-(trifluoromethoxy)phenylcarbamoyl)pyrrolidin-1-yl)-2-oxoethyl)-5-(pyrimidin-5-yl)-1H-indazole-3-carboxamide] | < 1000
NC(=O)c1nn(CC(=O)N2C[C@H](F)C[C@H]2C(=O)Nc2cccc(-c3ccccc3Cl)c2F)c2ccc(-c3cnc(N4CCCC4)nc3)cc12 [Compound 10] | < 1000
NC(=O)c1nn(CC(=O)N2[C@@H]3C[C@@H]3C[C@H]2C(=O)Nc2cccc(Br)n2)c2ccc(-c3cnc(N4CCCC4)nc3)cc12 [Compound 11] | < 1000
NC(=O)c1nn(CC(=O)N2C[C@H](F)C[C@H]2C(=O)Nc2cccc(-c3ccccc3Cl)c2F)c2ccc(-c3ccc(F)nc3)cc12 [Compound 12, 1-(2-((2S,4R)-2-((2′-Chloro-2-fluoro-[1,1′-biphenyl]-3-yl)carbamoyl)-4-fluoropyrrolidin-1-yl)-2-oxoethyl)-5-(6-fluoropyridin-3-yl)-1H-indazole-3-carboxamide] | < 1000
NC(=O)c1nn(CC(=O)N2[C@@H]3C[C@@H]3C[C@H]2C(=O)Nc2cccc(-c3ccccc3Cl)c2F)c2ccc(-c3ccc(F)nc3)cc12 [Compound 13, 1-(2-((lR,3S,5R)-3-(2′-chloro-2-fluorobiphenyl-3-ylcarbamoyl)-2-azabicyclo[3.1.0]hexan-2-yl)-2-oxoethyl)-5-(6-fluoropyridin-3-yl)-1H-indazole-3-carboxamide] | < 1000
CC(=O)c1cn(CC(=O)N2C[C@H](F)C[C@H]2C(=O)Nc2cccc(Br)n2)c2ccc(-c3cncnc3)cc12 [Compound 14, (2S,4R)-1-(2-(3-acetyl-5-(pyrimidin-5-yl)-1H-indol-1-yl)acetyl)-N-(6-bromopyridin-2-yl)-4-fluoropyrrolidine-2-carboxamide] | < 1000
CC(=O)c1cn(CC(=O)N2[C@@H]3C[C@@H]3C[C@H]2C(=O)Nc2cccc(-c3ccccc3Cl)c2F)c2ccc(-c3cncnc3)cc12 [Compound 15, (1R,3S,5R)-2-(2-(3-acetyl-5-(pyrimidin-5-yl)-1H-indol-1-yl)acetyl)-N-(2′-chloro-2-fluorobiphenyl-3-yl)-2-azabicyclo[3.1.0] hexane-3-carboxamide] | < 1000
CC(=O)c1cn(CC(=O)N2C[C@H](F)C[C@H]2C(=O)Nc2cccc(-c3ccccc3Cl)c2F)c2ccc(N3CCN(C(C)=O)CC3)cc12 [Compound 16, (2S,4R)-1-(2-(3-acetyl-5-(4-acetylpiperazin-1-yl)-1H-indol-1-yl)acetyl)-N-(2′-chloro-2-fluorobiphenyl-3-yl)-4-fluoropyrrolidine-2-carboxamide] | < 1000
CC(=O)c1cn(CC(=O)N2[C@@H]3C[C@@H]3C[C@H]2C(=O)Nc2cccc(Br)n2)c2ccc(-c3cncnc3)cc12 [Compound 17, (1R,3S,5R)-2-(2-(3-acetyl-5-(pyrimidin-5-yl)-1H-indol-1-yl)acetyl)-N-(6-bromopyridin-2-yl)-2-azabicyclo[3.1.0] hexane-3-carboxamide] | < 1000
NC(=O)c1nn(CC(=O)N2C[C@H](F)C[C@H]2C(=O)NCc2cccc(Cl)c2F)c2cnc(-c3cncnc3)cc12 [Compound 18, 1-(2-((2S,4R)-2-(3-chloro-2-fluorobenzylcarbamoyl)-4-fluoropyrrolidin-1-yl)-2-oxoethyl)-5-(pyrimidin-5-yl)-1H-pyrazolo[3,4-c]pyridine-3-carboxamide] | < 1000
NC(=O)c1nn(CC(=O)N2C[C@H](F)C[C@H]2C(=O)Nc2cccc(-c3ccccc3Cl)c2F)c2cnc(-c3cncnc3)cc12 [Compound 19, 1-(2-((2S,4R)-2-(2′-chloro-2-fluorobiphenyl-3-ylcarbamoyl)-4-fluoropyrrolidin-1-yl)-2-oxoethyl)-5-(pyrimidin-5-yl)-1H-pyrazolo[3,4-c]pyridine-3-carboxamide] | < 1000
CC(=O)c1cn(CC(=O)N2C[C@H](F)C[C@H]2C(=O)Nc2cccc(-c3ccccc3Cl)c2F)c2ccc(-c3ccnnc3)cc12 [Compound 20, (2S,4R)-1-(2-(3-Acetyl-5-(pryridazin-4-yl)-1H-indol-1-yl)acetyl)-N-(2′-chloro-2-fluoro-[1,1′-biphenyl]-3-yl)-4-fluoropyrrolidine-2-carboxamide] | < 1000
COc1ncc(-c2ccc3c(c2)c(C(C)=O)cn3CC(=O)N2C[C@H](F)C[C@H]2C(=O)Nc2cccc(Br)n2)cn1 [Compound 21, (2S,4R)-1-(2-(3-acetyl-5-(2-methoxypyrimidin-5-yl)-1H-indol-1-yl)acetyl)-N-(6-bromopyridin-2-yl)-4-fluoropyrrolidine-2-carboxamide] | < 1000
CN1CC=C(c2ccc3c(c2)c(C(N)=O)nn3CC(=O)N2C[C@H](F)C[C@H]2C(=O)Nc2cccc(Br)n2)CC1 [Compound 22, 1-(2-((2S,4R)-2-(6-bromopyridin-2-ylcarbamoyl)-4-fluoropyrrolidin-1-yl)-2-oxoethyl)-5-(1-methyl-1,2,3,6-tetrahydropyridin-4-yl)-1H-indazole-3-carboxamide] | < 1000
NC(=O)c1nn(CC(=O)N2C[C@H](F)C[C@H]2C(=O)Nc2cccc(Br)n2)c2ccc(-c3ccnnc3)cc12 [Compound 25, 1-(2-((2S,4R)-2-(6-bromopyridin-2-ylcarbamoyl)-4-fluoropyrrolidin-1-yl)-2-oxoethyl)-5-(pyridazin-4-yl)-1H-indazole-3-carboxamide] | < 1000
CC(=O)c1cn(CC(=O)N2C[C@H](F)C[C@H]2C(=O)Nc2cccc(-c3ccccc3Cl)c2F)c2ccc(-c3cnc(N4CCCC4)nc3)cc12 [Compound 26, (2S,4R)-1-(2-(3-acetyl-5-(2-(pyrrolidin-1-yl)pyrimidin-5-yl)-1H-indol-1-yl)acetyl)-N-(2′-chloro-2-fluorobiphenyl-3-yl)-4-fluoropyrrolidine-2-carboxamide] | < 1000
COc1ncc(-c2ccc3c(c2)c(C(C)=O)cn3CC(=O)N2C[C@H](F)C[C@H]2C(=O)Nc2cccc(-c3ccccc3Cl)c2F)cn1 [Compound 27, (2S,4R)-1-(2-(3-acetyl-5-(2-methoxypyrimidin-5-yl)-1H-indol-1-yl)acetyl)-N-(2′-chloro-2-fluoro-[1,1′-biphenyl]-3-yl)-4-fluoropyrrolidine-2-carboxamide] | < 1000
COc1ncc(-c2ccc3c(c2)c(C(N)=O)nn3CC(=O)N2C[C@H](F)C[C@H]2C(=O)Nc2cccc(Cl)n2)cn1 [Compound 30, 1-(2-((2S,4R)-2-(6-chloropyridin-2-ylcarbamoyl)-4-fluoropyrrolidin-1-yl)-2-oxoethyl)-5-(2-methoxypyrimidin-5-yl)-1H-indazole-3-carboxamide] | < 1000
CC(=O)c1cn(CC(=O)N2C[C@H](F)C[C@H]2C(=O)Nc2cccc(-c3ccccc3Cl)c2F)c2ccc(N3CCN(c4ncccn4)CC3)cc12 [Compound 31, (2S,4R)-1-(2-(3-acetyl-5-(4-(pyrimidin-2-yl)piperazin-1-yl)-1H-indol-1-yl)acetyl)-N-(2′-chloro-2-fluorobiphenyl-3-yl)-4-fluoropyrrolidine-2-carboxamide] | < 1000
